Laboratory results from paper PMC4911001, “Synthesis and Biological Evaluation of Novel Phosphatidylcholine Analogues Containing Monoterpene Acids as Potent Antiproliferative Agents” (PLoS ONE, 2016).

How the values were obtained:
[1] = test system: BALB/3T3 (normal mice fibroblasts); test: Antiproliferative assay in vitro, SRB test, BALB/3T3; assay type: cell-based; settings: mean ± SD of 3–5 independent experiments, n.a. = no activity in concentration of 5, 25, 125, 625 μM
Protocol: (§1) Established in vitro, human cancer cell lines: MV4-11 (human biphenotypic B myelomonocytic leukaemia), A-549 (non-small cell lung cancer), MCF-7 (breast cancer), LoVo (colon cancer), LoVo/DX (colon cancer drug resistant), HepG2 (liver cancer) and BALB/3T3 (normal mice fibroblasts) were used.
(§2) The leukaemia cell line was cultured in RPMI 1640 medium (IIET, Wroclaw, Poland) with supplemented with 2 mM L-glutamine adjusted to contain 1.0 mM sodium pyruvate, 10% fetal bovine serum (all from Sigma-Aldrich Chemie GmbH, Steinheim, Germany). A549, LoVo and LoVo/DX cells were cultured in the mixture of RPMI 1640+Opti-MEM (1:1) (both from Gibco, Scotland, UK), MCF-7 cells in Eagle medium (IIET, Wroclaw, Poland), HepG2 in DMEM medium (Gibco, Scotland, UK), BALB/3T3 in DMEM medium (IIET, Wroclaw, Poland) supplemented with 2 mM L-glutamine and 1.0 mM sodium pyruvate, 10% fetal bovine serum (all from Sigma-Aldrich, Germany). The MCF-7 cell culture was supplemented with 0.8 mg/L of insulin (Sigma-Aldrich Chemie GmbH, Steinheim, Germany) and the LoVo/DX cell culture was supplemented with 0.1 μg/mL of doxorubicin (Accord). All culture media were supplemented with 100 units/mL penicillin, and 100 μg/mL streptomycin (both from Polfa Tarchomin S.A., Warsaw, Poland). All cell lines were grown at 37°C with 5% CO2 humidified atmosphere.
(§3) Prior to usage, the compounds were dissolved in DMSO or in mixture of 99.8% ethanol and DMSO (1:1) to the concentration of 25 or 50 mM, and subsequently diluted in culture medium to reach the required concentrations (ranging from 5 to 625 μM).
(§4) 24 hours before addition of the tested compounds, the cells were plated in 96-well plates at density of 1×10^4 cells per well. An assay was performed after 72 hours exposure to varying concentrations of the tested agents.
(§5) Cytotoxic test MTT was applied for the cytotoxicity screening against leukaemia cells growing in suspension culture and were carried out according to the method described before. Cytotoxic test SRB was applied against A549, MCF-7, LoVo, LoVo/DX, BALB/3T3 and HepG2 cells and were carried out according to the method described before.
(§6) The results were calculated as an IC50 (inhibitory concentration 50)–the concentration of tested agent, which inhibits proliferation of 50% of the cell population. Each compound in each concentration was tested in triplicate in a single experiment, which was repeated 3–5 times.

[2] = test system: MV4-11 (human biphenotypic B myelomonocytic leukaemia); test: Antiproliferative assay in vitro, MTT test, MV4-11; assay type: cell-based; settings: mean ± SD of 3–5 independent experiments, n.a. = no activity in concentration of 5, 25, 125, 625 μM
Protocol: as §1, §2, §3, §4, §5, §6

[3] = test system: drug resistant LOVO/DX line versus drug sensitive LoVo line; test: Resistance index (RI), LoVo/DX versus LoVo; assay type: cell-based, human; settings: RI = IC50 LoVo/DX / IC50 LoVo; 0<RI<2 able to overcome drug resistance; 2<RI<10 moderate ability; RI>10 no influence
Protocol: Using the obtained IC50 values, the resistance indexes (RI) were calculated by dividing the IC50 values of the compounds tested against the cells of drug resistant cell LOVO/DX line by respective values obtained against the cells of drug sensitive LoVo line. According to Harker et al. three categories of the cells could be distinguished: (a) the cells are drug-sensitive—if the ratio approaches 0–2; (b) the cells are moderately drug-resistant—if the ratio ranges from 2 to 10; (c) the cells are markedly drug-resistant—if the ratio is higher than 10.
We calculated also the resistance indexes (RI) by dividing the IC50 values of the compounds tested against the cells of drug resistant cell LoVo/DX by respective values obtained against the drug sensitive LoVo cell line (Table 2). […] Compounds 7a, 7b and 10b have the highest ability to overcome the barrier of resistance (RI = 1.08, 1.06 and 1.09).

[4] = test system: LoVo/DX (colon cancer drug resistant); test: Antiproliferative assay in vitro, SRB test, LoVo/DX; assay type: cell-based, human; settings: 72 hours exposure, doxorubicin-resistant line, mean ± SD of 3–5 independent experiments, n.a. = no activity in concentration of 5, 25, 125, 625 μM
Protocol: as §1, §2, §3, §4, §5, §6

HepG2 (liver cancer) = test: Antiproliferative assay in vitro, SRB test, HepG2; assay type: cell-based, human; settings: mean ± SD of 3–5 independent experiments, n.a. = no activity in concentration of 5, 25, 125, 625 μM
Protocol: as §1, §2, §3, §4, §5, §6

tested cancer cell lines = test: Antiproliferative activity compared with free terpene acids, cancer cell line panel; assay type: cell-based, human; settings: for antiproliferative activity, fold higher than free acids: compared with free terpene acids; for IC50 values, fold lower than those of free terpene acids 1a, 1b: towards leukaemia, LoVo, LOVO/DX and breast cell lines
Protocol: as §4, §5, §6
The aim of this study was to determine whether a joining the terpenes with PC has impact on their biological activity. Increasing the lipophilicity of active compounds was expected to raise their cytotoxicity. We observed that almost all synthesized compounds were cytotoxic against tested cancer cell lines. […] Upon careful evaluation of data it can be concluded that cytotoxic activity of terpene-modified PCs is depended on the position of terpene moiety in the backbone of PC. […] These compounds stronger than corresponding acids inhibit the proliferation of cancer cells. […] Their IC50 values were more than 9-fold lower than those determined for free terpene acids 1a, 1b towards leukaemia, LoVo, LOVO/DX and breast cell lines. […] Generally, activity of terpene-modified PC increased in the following sequence: 1-isoprenoyl-LPC < diisoprenoyl-PC < monoisoprenoyl-PC.

[5] = test system: A-549 (non-small cell lung cancer); test: Antiproliferative assay in vitro, SRB test, A-549; assay type: cell-based, human; settings: mean ± SD of 3–5 independent experiments, n.a. = no activity in concentration of 5, 25, 125, 625 μM
Protocol: as §1, §2, §3, §4, §5, §6

MCF-7 (breast cancer) = test: Antiproliferative assay in vitro, SRB test, MCF-7; assay type: cell-based, human; settings: mean ± SD of 3–5 independent experiments, n.a. = no activity in concentration of 5, 25, 125, 625 μM
Protocol: as §1, §2, §3, §4, §5, §6

LoVo (colon cancer) = test: Antiproliferative assay in vitro, SRB test, LoVo; assay type: cell-based, human; settings: 72 hours exposure, mean ± SD of 3–5 independent experiments, n.a. = no activity in concentration of 5, 25, 125, 625 μM
Protocol: as §1, §2, §3, §4, §5, §6

[6] = Mus musculus, BALB/3T3, 72 hours exposure
[7] = Homo sapiens, MV4-11, 72 hours exposure
[8] = Homo sapiens, HepG2, 72 hours exposure
[9] = Homo sapiens, A549, 72 hours exposure
[10] = Homo sapiens, MCF7, 72 hours exposure

SMILES | IC50 [2, 7] [µM] | IC50 ([4]; Homo sapiens, LoVo/DX) [µM] | IC50 (HepG2 (liver cancer); [8]) [µM] | IC50 [5, 9] [µM] | IC50 (MCF-7 (breast cancer); [10]) [µM] | IC50 (LoVo (colon cancer); Homo sapiens, LoVo) [µM] | IC50 values, fold lower than those of free terpene acids 1a, 1b (tested cancer cell lines) | IC50 [1, 6] [µM] | Resistance index (RI) [3] | antiproliferative activity, fold higher than free acids (tested cancer cell lines) | IC50 ±SD, HepG2 (HepG2 (liver cancer); 72 hours exposure) | IC50 ±SD, A-549 ([5]; 72 hours exposure) | IC50 ([1]; 72 hours exposure) [µM] | IC50 ([2]; 72 hours exposure) [µM] | IC50 [4] [µM] | IC50 (HepG2 (liver cancer); 72 hours exposure) [µM] | IC50 ([5]; 72 hours exposure) [µM] | IC50 (MCF-7 (breast cancer); 72 hours exposure) [µM] | IC50 (LoVo (colon cancer)) [µM]
CC(C)=CCCC(C)=CC(=O)OC[C@@H](O)COP(=O)([O-])OCC[N+](C)(C)C (mixture of isomers) [Compound 9a] | 324 ± 116 | 526 ± 89.6 | – | – | 523 ± 97.2 | 246 ± 9.9 | – | – | – | – | not active | not active | – | – | – | – | – | – | –
N.N.[Cl][Pt][Cl] [Cisplatin, reference compound] | – | – | – | – | – | – | – | – | – | – | – | – | 4.2 ± 1.1 | 1.3 ± 0.47 | 3.17 ± 0.2 | 2.38 ± 0.64 | 8.6 ± 0.7 | 8.1 ± 0.03 | 2.56 ± 0.35
CC(C)=CCCC(C)=CC(=O)O [Compound 1a, Geranic acid, reference compound] | 311 ± 96.4 | 492 ± 44.5 | – | – | 447 ± 72 | 263 ± 32 | – | – | 1.87 | – | did not showed any reduction of cells growth | did not showed any reduction of cells growth | – | – | – | – | – | – | –
CC(C)=CCCC(C)CC(=O)O (stereo not drawn) [Compound 1b, citronellic acid, reference compound] | 254 ± 68 | 533 ± 36.7 | – | – | 453 ± 96 | 249 ± 26.4 | – | – | – | – | did not showed any reduction of cells growth | did not showed any reduction of cells growth | – | – | – | – | – | – | –
COc1cccc2c1C(=O)c1c(O)c3c(c(O)c1C2=O)C[C@@](O)(C(=O)CO)C[C@@H]3O[C@H]1C[C@H](N)[C@H](O)[C@H](C)O1 [Doxorubicin, reference compound] | – | 6.53 ± 0.93 | – | – | – | 0.117 ± 0.012 | – | – | 55.81 | – | – | – | – | – | – | – | – | – | –

Now from value to compound, other results behind:

IC50 [2, 7] [µM] | IC50 ([4]; Homo sapiens, LoVo/DX) [µM] | IC50 (HepG2 (liver cancer); [8]) [µM] | IC50 [5, 9] [µM] | IC50 (MCF-7 (breast cancer); [10]) [µM] | IC50 (LoVo (colon cancer); Homo sapiens, LoVo) [µM] | IC50 values, fold lower than those of free terpene acids 1a, 1b (tested cancer cell lines) | SMILES | IC50 [1, 6] [µM] | Resistance index (RI) [3] | antiproliferative activity, fold higher than free acids (tested cancer cell lines) | IC50 ±SD, HepG2 (HepG2 (liver cancer); 72 hours exposure) | IC50 ±SD, A-549 ([5]; 72 hours exposure) | IC50 ([1]; 72 hours exposure) [µM] | IC50 ([2]; 72 hours exposure) [µM] | IC50 [4] [µM] | IC50 (HepG2 (liver cancer); 72 hours exposure) [µM] | IC50 ([5]; 72 hours exposure) [µM] | IC50 (MCF-7 (breast cancer); 72 hours exposure) [µM] | IC50 (LoVo (colon cancer)) [µM]
96.7 ± 33.9 | 279 ± 10.8 | 285 ± 5 | 274 ± 9.42 | 236 ± 21.3 | 248 ± 9.3 | – | CC(C)=CCCC(C)=CC(=O)OC[C@H](COP(=O)([O-])OCC[N+](C)(C)C)OC(=O)C=C(C)CCC=C(C)C (mixture of isomers) [Compound 3a] | 273 ± 6.76 | 1.12 | 2-3 fold | – | – | – | – | – | – | – | – | –
60.9 ± 10.9 | 55 ± 2.12 | 200 ± 6.1 | 72.1 ± 14.4 | 105 ± 6.51 | 51.1 ± 5.1 | more than 9 fold | CCCCCCCCCCCCCCCC(=O)OC[C@H](COP(=O)([O-])OCC[N+](C)(C)C)OC(=O)C=C(C)CCC=C(C)C (mixture of isomers) [Compound 7a, 1'-palmitoyl-2'-(E)-geranoyl-sn-glycero-3'-phosphocholine + 1'-palmitoyl-2'-(Z)-geranoyl-sn-glycero-3'-phosphocholine] | 186 ± 15.2 | 1.08 | – | – | – | – | – | – | – | – | – | –
38.2 ± 9.3 | 51.9 ± 6.7 | 70.3 ± 8.6 | 49.5 ± 1.88 | 52.5 ± 5.9 | 34.6 ± 1.6 | more than 9 fold | CCCCCCCCCCCCCCCC(=O)O[C@H](COC(=O)C=C(C)CCC=C(C)C)COP(=O)([O-])OCC[N+](C)(C)C (mixture of isomers) [Compound 10a] | 65.8 ± 3.34 | 1.5 | – | – | – | – | – | – | – | – | – | –
130 ± 37.8 | 251 ± 23.4 | 280.7 ± 1.8 | 203 ± 47.7 | 243 ± 45.1 | 194 ± 22 | – | CC(C)=CCCC(C)CC(=O)OC[C@H](COP(=O)([O-])OCC[N+](C)(C)C)OC(=O)CC(C)CCC=C(C)C (stereo partly drawn) [Compound 3b] | 284 ± 6.3 | 1.3 | 2-3 fold | – | – | – | – | – | – | – | – | –
45.7 ± 7.63 | 57.1 ± 2.5 | 103 ± 11.1 | 61.2 ± 6 | 155 ± 88.3 | 53.9 ± 2.97 | more than 9 fold | CCCCCCCCCCCCCCCC(=O)OC[C@H](COP(=O)([O-])OCC[N+](C)(C)C)OC(=O)CC(C)CCC=C(C)C (stereo partly drawn) [Compound 7b] | 112 ± 29.3 | 1.06 | – | – | – | – | – | – | – | – | – | –
382 ± 24.5 | 552 ± 18.5 | – | – | – | 287 ± 35.1 | – | CC(C)=CCCC(C)CC(=O)OC[C@@H](O)COP(=O)([O-])OCC[N+](C)(C)C (stereo partly drawn) [Compound 9b] | – | 1.93 | – | – | – | – | – | – | – | – | – | –
57.1 ± 6.37 | 57 ± 1.8 | 233 ± 14.7 | 60.2 ± 6.4 | 209 ± 25.7 | 52.4 ± 3.6 | more than 9 fold | CCCCCCCCCCCCCCCC(=O)O[C@H](COC(=O)CC(C)CCC=C(C)C)COP(=O)([O-])OCC[N+](C)(C)C (stereo partly drawn) [Compound 10b] | 92.9 ± 15.3 | 1.09 | – | – | – | – | – | – | – | – | – | –
